Measured values from patent US7179821B2, “Method of treating of demyelinating diseases or conditions” (Aventis Pharmaceuticals Inc., priority 2001, dated 2007).
Marks after values point to notes of the source that are not given here.

How the values were obtained:
[1] = system: voltage-dependent K+ channels; assay: Potassium channel currents in PC12 cells, patch clamp; type: cell-based; conditions: 10 μM, 200 msec clamp pulses to +40 mV from −80 mV, n=4
Method: PC12 cells (ATCC, Rockville, Md.) were grown in Dulbecco's modified Eagle's media supplemented with 10% fetal bovine serum (GIBCO BRL Grand Island, N.Y.). Potassium channel currents were measured using standard patch clamp electrophysiolgy protocols as detailed previously (Rampe et al., 1998).
Potassium channel currents were elicited by 200 msec clamp pulses to +40 mV from a holding potential of −80 mV. […] Application of HP184 (10 μM) reduced the amplitude of this current and enhanced the rate of current decay. When current was measured at the end of the pulse, HP184 reduced current amplitude by 75±4% (n=4). The results are consisent with the notion that HP184 acts as an antagonist of voltage-dependent K^+ channels by blocking an activated state.

[2] = system: long-standing (25 days) spinal cord injury of minor intensity; assay: Chronic crush experiment, 25-day old mild compression injury (1.6 mm), OFT score; type: in vivo, rat; conditions: for OFT score 3 hours after last dose (Day 28, mild) / OFT score 3 hours after last dose: three consecutive daily doses; for OFT score prior to dose (Day 25, mild): group 3 mg/kg po; for OFT score prior to dose (Day 25, mild) / OFT score prior to dose: baseline before dosing
Text: Normal spinal cord diameter is approximately 2.5 mm. This compression represents a moderate injury characterized by initial open field walking scores of 1.5–2.5 in the Open Field Walking Scale. […] The spinal cords of female rats were exposed to laminectomy or crush to a diameter of 1.6 mm. This represented a minor injury, and was designed to result in OFT scores of 4.0 after 25 days of no treatment. […] In this experiment, OFT scores were slightly higher (4.3–4.5), leaving only a small window for improvement. […] Consistent improvement was also observed after once a day ip 0.6 mg/kg 4-AP as well. The statistical differences were based upon the changes for each individual rat (each rat was its own control) using Mann-Whitney U-test. All the behavioral tests on day1, day2 and day3 were performed at 3 hours after gavage. There was no drug given on day3 (first day started to give drug was day 0).

NO production = assay: LPS-induced NO production in mice, plasma nitrate by Griess assay; type: in vivo, mouse; conditions: 30 mg/kg ip 30 minutes prior to LPS 3 mg/kg ip, plasma 5 hours after LPS
Method: Mice were injected with 30 mg/kg HP 184 (ip) 30 minutes prior to LPS (3 mg/kg, ip). Mice were sacrificed 5 hours after LPS injection, and plasma collected. Nitrate levels were determined by the Griess assay. Groups were composed of 9–10 mice each.

CCCN(c1ccncc1F)n1cc(C)c2ccccc21 [HP184, N-(3-fluoro-4-pyridinyl)-N-propyl-3-methyl-1H-indole-1-amine]
reduction of current amplitude at the end of the pulse [1]: 75±4% | OFT improvement compared to vehicle control (Mann-Whitney U-test) ([2]; 3 mg/kg po once a day, p=0.0027): significant improvement at 30 min to 6 h to day 1 | OFT score 3 hours after last dose (Day 28, mild) ([2]; 3 mg/kg po once a day): 4.47 ± .035 | OFT score 3 hours after last dose (Day 28, mild) ([2]; 3 mg/kg po once a day, listed as HP): 4.47 ± 0.04 | OFT improvement compared to vehicle control (Mann-Whitney U-test) ([2]; 10 mg/kg po once a day, p=0.014): significant improvement at 30 min and 3 h to 12 h | OFT score 3 hours after last dose ([2]; 10 mg/kg po once a day): 4.44 ± 0.03 | OFT improvement compared to vehicle control (Mann-Whitney U-test) ([2]; 20 mg/kg po once a day, p=0.002): significant improvement at 3 h to day 3 | OFT score 3 hours after last dose ([2]; 20 mg/kg po once a day): 4.60 ± 0.02 | % possible improvement (highest score = 5), mild ([2]; 3 mpk po): 22.0%* | Delta of OFT score, Day 25 to Day 28 (mild) ([2]; 3 mpk po): .15 | OFT score prior to dose (Day 25, mild) [2]: 4.32 ± .016 | OFT score prior to dose (Day 25, mild) ([2]; listed as HP): 4.32 ± 0.05 | OFT score prior to dose ([2]; group 10 mg/kg po): 4.36 ± 0.01 | OFT score prior to dose ([2]; group 20 mg/kg po): 4.54 ± 0.02 | NO production (plasma nitrate), FIG. 9 (NO production): inhibits NO production
